Assays:
[1] = system: Leishmania; test: AntiLeishmania activity Toxicity on infected PMM (uM); format: functional
[2] = system: Trypanosoma cruzi; test: AntiTrypanosoma cruzi activity IC50 (uM); format: functional, organism-based
[3] = system: Leishmania donovani; test: AntiLeishmania activity L. donovani (axenic) IC50 (uM); format: functional, organism-based
[4] = system: MRC5; test: MRC5 CC50 (uM) Cytotoxicity; format: functional; conditions: Homo sapiens
[5] = system: L6; test: L6 CC50 (uM) Cytotoxicity; format: functional; conditions: Rattus norvegicus
[6] = system: HepG2; test: Cytotoxicity data HepG2 CC20 (uM); format: functional
[7] = PMM CC50 (uM) Cytotoxicity; format: functional; conditions: Macrophage
[8] = system: Leishmania infantum; test: AntiLeishmania activity L. infantum (macrophages) IC50 (uM); format: functional, organism-based
[9] = system: Trypanosoma brucei; test: AntiTrypanosoma brucei activity T. b. brucei IC50 (uM); format: functional, organism-based
[10] = system: Leishmania donovani; test: AntiLeishmania activity L. donovani (macrophages) IC50 (uM); format: functional, organism-based
[11] = system: Trypanosoma brucei; test: AntiTrypanosoma brucei activity T. b. rhodesiense IC50 (uM); format: functional, organism-based
[12] = system: Toxoplasma gondii; test: AntiToxoplasma gondii activity data Inhibition of plaque forming efficiency (%) Experiment A; format: functional; parameters: concentration or dose not given beside the values
[13] = system: Toxoplasma gondii; test: AntiToxoplasma gondii activity data 2-day killing assay: inhibition at 10 uM (%) Experiment D; format: functional
[14] = HL60 CC50 (uM) Cytotoxicity; format: functional; conditions: HL-60
[15] = system: Toxoplasma gondii; test: AntiToxoplasma gondii activity data 2-day killing assay: inhibition at 10 uM (%) Experiment E; format: functional
[16] = system: Toxoplasma gondii; test: AntiToxoplasma gondii activity data 2-day killing assay: inhibition at 10 uM (%) Experiment C; format: functional; conditions: 48 h
[17] = system: Toxoplasma gondii; test: AntiToxoplasma gondii activity data 2-day killing assay: IC50 (uM), Experiment F; format: functional, organism-based; conditions: Toxoplasma gondii, 48 h; read-out: IC50
[18] = system: Toxoplasma gondii; test: AntiToxoplasma gondii activity data 2-day killing assay: IC50 (uM), Experiment G; format: functional, organism-based
[19] = system: Onchocerca lienalis; test: AntiOnchocerca activity O. lienalis microfilariae Motility reduction (%); format: functional; parameters: concentration or dose not given beside the values
[20] = system: Cryptosporidium parvum; test: AntiCryptosporidium parvum activity Compounds added at t0, IC 50 (uM); format: functional, organism-based
[21] = system: Plasmodium falciparum; test: Antimalarial activity: Asexual Blood Stage Plasmodium falciparum 3D7 IC50 (uM); format: functional, organism-based
[22] = system: Plasmodium berghei; test: Antimalarial activity: Liver Stage Plasmodium berghei sporozoite Luciferase assay IC50 (uM); format: functional, organism-based
[23] = system: Plasmodium falciparum; test: Antimalarial activity: Gametocytes Plasmodium falciparum NF54 Gametocytes Stage V: inhibition at 10 uM (%); format: functional
[24] = system: Plasmodium falciparum; test: Antimalarial activity: Gametocytes Plasmodium falciparum NF54 Gametocytes Stage V IC50 (uM); format: functional, organism-based
[25] = system: HepG2; test: HepG2 CC50 (uM) Cytotoxicity; format: functional; conditions: Homo sapiens
[26] = system: Plasmodium berghei; test: Antimalarial activity: Liver Stage Plasmodium berghei sporozoite Luciferase assay: inhibition at 10 uM (%); format: functional
[27] = system: Plasmodium falciparum; test: Antimalarial activity: Asexual Blood Stage Plasmodium falciparum W2 IC50 (uM); format: functional, organism-based
[28] = system: Plasmodium falciparum; test: Antimalarial activity: Asexual Blood Stage Plasmodium falciparum Dd2 IC50 (uM); format: functional, organism-based
[29] = system: Schistosoma mansoni; test: AntiSchistosoma mansoni activity Newly Transformed Schistosomula: inhibition at 10 uM at 72h (%); format: functional
[30] = system: Schistosoma mansoni; test: AntiSchistosoma mansoni activity Adults IC50 (uM); format: functional, organism-based
[31] = system: Schistosoma mansoni; test: AntiSchistosoma mansoni activity Juveniles IC50 (uM); format: functional, organism-based

IC50 [2] [µM]	IC50 [3] [µM]	IC50 [8] [µM]	IC50 [9] [µM]	IC50 [10] [µM]	IC50 [11] [µM]	Compound	Toxicity on infected macrophages [1] [µM]	CC50 [4] [µM]	CC50 [5] [µM]	CC20 [6] [µM]	CC50 [7] [µM]	other results
4.25	0.25	16.2	> 32	5.17	27.2	FC(F)(F)c1cc(NCCc2ccccc2)nc(-c2ccccn2)n1	30	> 32	5.3	>80	16	
> 32	3.95	> 32	> 32	> 30	> 32	COC(=O)c1cccc2oc(-c3cccc(OC)c3NC(=O)c3cc(-c4ccccc4)on3)nc12	>30	> 32	50	>80	> 32	
16	9.7	> 32	15.1	26.1	5.26	c1ccc(Oc2ccc(-c3cc(CN4CCOCC4)[nH]n3)cc2)cc1	30	> 32	22.9	28.9	> 32	
4.44	2.05	> 32	> 32	> 30	> 32	Cc1nc(-c2ccccn2)nc(NCCc2ccc(S(C)(=O)=O)cc2)c1Cl	30	> 32	13	27.9	> 32	
21.5	14.3	> 32	0.25	> 30	< 0.13	COc1ccc(C(=N)N)cc1-c1cn(-c2ccc(C(=N)N)cc2)nn1	30	> 32	26.7	5.47	> 32	
> 32	0.4	> 32	> 32	> 30	> 32	O=C(Nc1ccccc1-c1nc2c(C(=O)O)cccc2o1)c1ccccc1	>30	> 32	45.4	>80	> 32	
> 32	0.57	> 32	> 32	> 30	> 32	O=C(Nc1c(O)cccc1-c1nc2c(C(=O)O)cccc2o1)c1cc(-c2ccccc2)on1	>30	> 32	21.9	5.73	> 32	
3.08	6.6	> 32	> 32	> 30	> 32	Clc1cccc(CO[C@H]2CCc3ccccc3[C@@H]2n2ccnn2)c1	>30	> 32	64	>80	> 32	
16	3.87	21.5	3.45	> 30	1.29	c1ccc(Oc2ccc(-c3cc(N4CCOCC4)[nH]n3)cc2)cc1	>30	> 32	10	7.47	> 32	
4.62	> 100	25.4	24.9	22.2	16.4	N#CCN(CCCCN1CCN(c2ccc(F)cc2)CC1)C(=O)OCc1ccccc1	>30	> 32	15.3		> 32	Toxicity [1]: >30 µM
0.88	0.02	4.06	14.9	2.6	11.8	Cc1nc(-c2ccccn2)nc(N(C)CCc2ccccc2)c1Cl	16.7	21.7	9.6	11.3	4	

More lines, now with the values behind:

Compound	IC50 [2] [µM]	IC50 [3] [µM]	IC50 [8] [µM]	IC50 [9] [µM]	IC50 [10] [µM]	IC50 [11] [µM]	Toxicity on infected macrophages [1] [µM]	CC50 [4] [µM]	CC50 [5] [µM]	CC20 [6] [µM]	CC50 [7] [µM]	other results
CC(C)n1nc(-c2cc3c(Cl)cccc3[nH]2)c2c(N)ncnc21												Inhibition [12]: 100%; Inhibition [13]: 100%; CC50 [14]: > 25 µM; Inhibition [15]: 99.5%; inhibition at 10 µM [16]: 99.6%; IC50 [17]: 0.16 µM
Clc1ccc(Cl)c(CO[C@H]2CCCC[C@@H]2n2ccnc2)c1	1.36	15.6	16.2	> 32	12.8	22.9	30	> 32	30.7	37.1	16	
Nc1nc(N)c2c3c(sc2n1)CN(Cc1ccccc1)CC3												Inhibition [12]: 100%; Inhibition [13]: 83.2%; CC50 [14]: > 50 µM; IC50 [18]: no inhibition; Inhibition [15]: 81.6%; inhibition at 10 µM [16]: 54.2%; IC50 [17]: 7.06 µM
Nc1ncc(-c2ccc(C(F)(F)F)nc2)cc1-c1ccc(C(F)(F)F)nc1										>80		Activity [19]: 93%
Nc1ncnc2[nH]nc(Cc3cccc4ccccc34)c12												Inhibition [12]: 100%; Inhibition [13]: 89.2%; CC50 [14]: > 25 µM; IC50 ([18]; Toxoplasma gondii, 48 h, read-out: IC50): 3.05 µM; Inhibition [15]: 63.3%; inhibition at 10 µM [16]: 54.7%; IC50 [17]: 2.31 µM
CCOc1ccc2cc(-c3nn(CC4CCN(C)CC4)c4ncnc(N)c34)ccc2c1												IC50 [20]: 0.05 µM
NS(=O)(=O)c1cccc(-c2ccc3ncc(N4CCOCC4)nc3c2)c1										7.61		IC50 [21]: 1.5 µM; IC50 [22]: 1.82 µM; Inhibition [23]: 92%; IC50 [24]: 1.33 µM; CC50 [25]: > 10 µM; Inhibition [26]: 100%; IC50 [27]: 1.85 µM; IC50 [28]: 1.66 µM
CCOc1ccc2cc(-c3nn(C(C)(C)C)c(N)c3C(N)=O)cnc2c1												IC50 [20]: 0.05 µM
O=C(OCc1ccccc1)N1CCC(c2cc(-c3ccncc3)c(-c3ccc(F)cc3)[nH]2)CC1												Inhibition [12]: ~75%; Inhibition [13]: 76.8%; CC50 [14]: > 50 µM; Inhibition [15]: 99.1%; inhibition at 10 µM [16]: 77%; IC50 [17]: 0.87 µM
N#Cc1ccc(-c2cnc(N)c(-c3ccc(C(N)=O)cc3)n2)cc1										12		IC50 [21]: 0.09 µM; IC50 [22]: 0.28 µM; Inhibition [23]: 87%; IC50 [24]: 0.14 µM; CC50 [25]: > 10 µM; Inhibition [26]: 100%; IC50 [27]: 0.21 µM; IC50 [28]: 0.11 µM
Cc1ccc2c(c1C)NC(=O)C21NN=C(c2ccccc2)S1 (centres undefined)										>80		IC50 [21]: 1.13 µM; IC50 [22]: 0.88 µM; Inhibition [23]: 78%; IC50 [24]: 0.9 µM; CC50 [25]: > 7.5 µM; Inhibition [26]: 100%; IC50 [27]: 0.89 µM; IC50 [28]: 2.13 µM
Cc1cc(OCC(=O)Nc2ccc(C(C)C)cc2)n(C)c(=O)c1C#N										>80		Inhibition [29]: 13.3%; IC50 [30]: 7.2 µM; IC50 [31]: 3.88 µM
CC(C)(C)n1nc(-c2ccccc2)c2c(N)ncnc21												Inhibition [12]: 100%; Inhibition [13]: 100%; CC50 [14]: > 25 µM; Inhibition [15]: 97.5%; inhibition at 10 µM [16]: 96.5%; IC50 [17]: 1.1 µM
CN1CCC(c2cc(-c3ccncc3)c(-c3ccc(F)cc3)[nH]2)CC1												Inhibition [12]: 100%; Inhibition [13]: 100%; CC50 [14]: > 50 µM; Inhibition [15]: 97.9%; inhibition at 10 µM [16]: 99.3%; IC50 [17]: 1.21 µM
CCN(CC)S(=O)(=O)c1ccc(Cl)c(C(=O)Nc2ccc3nc(C)sc3c2)c1										10		IC50 [21]: 0.5 µM; IC50 [22]: 1.31 µM; Inhibition [23]: 86%; IC50 [24]: 3.91 µM; CC50 [25]: > 10 µM; Inhibition [26]: 100%; IC50 [27]: 0.59 µM; IC50 [28]: 0.55 µM
CN(C)c1cc(NC(=O)Nc2ccccc2)c2ccccc2n1										6.86		IC50 [21]: 0.6 µM; IC50 [22]: > 10 µM; Inhibition [23]: 88%; IC50 [24]: 3.13 µM; CC50 [25]: > 10 µM; Inhibition [26]: 98%; IC50 [27]: 1.23 µM; IC50 [28]: 1.1 µM
CN1CCC(NCc2cccc(-c3ccc(S(=O)(=O)NCc4ccccc4)cc3)c2)CC1										4.15		IC50 [21]: 0.82 µM; IC50 [22]: 4.55 µM; Inhibition [23]: 95%; IC50 [24]: 1.42 µM; CC50 [25]: > 10 µM; Inhibition [26]: 99%; IC50 [27]: 2.14 µM; IC50 [28]: 2.06 µM
COc1ccc(-c2cnc3ccc(NCc4ccc(S(N)(=O)=O)cc4)nn23)cn1										3.29		IC50 [21]: 0.49 µM; IC50 [22]: 6.8 µM; Inhibition [23]: 82%; IC50 [24]: 1.03 µM; CC50 [25]: > 10 µM; Inhibition [26]: 100%; IC50 [27]: 0.71 µM; IC50 [28]: 0.81 µM
Cc1cc(NC(=O)c2ccc(Oc3ccc(Cl)cc3O)o2)no1												Inhibition [12]: ~85%; Inhibition [13]: 64.8%; CC50 [14]: > 50 µM; IC50 [18]: no inhibition; Inhibition [15]: 22%; inhibition at 10 µM [16]: 70%; IC50 [17]: 7.32 µM
CC(C)(C)n1nc(Cc2ccc(F)c(Cl)c2)c2c(N)ncnc21												Inhibition [12]: 100%; Inhibition [13]: 100%; CC50 [14]: > 25 µM; Inhibition [15]: 95.5%; inhibition at 10 µM [16]: 98.3%; IC50 [17]: 1.7 µM
